# Experimental data reported in patent publication EP0423240B1, “MODULATION OF VIRUS-HOST CELL INTERACTIONS USING CYCLIC OLIGOSACCHARIDES” (THE TRUSTEES OF THE UNIVERSITY OF PENNSYLVANIA, priority 1988, dated 1990).
# Key:
# [1] = tested on: HIV-1; test: HIV-1 induced syncytia assay, IIIb infected H9 cells cocultured with Supt-1 target cells; type: cell-based; conditions: for number of syncytia formed: HIV-1, number and size of syncytia
# Description: (§1) For the assay of HIV-1 fusion, Supt T1 cells were used as target cells. They fuse rapidly when cocultured with HIV-1 (H9/IIIb) producing cell lines. For the assay of HIV-2 mediated cell fusion, H9 cells were used as target cells. They fuse rapidly when cocultured with HIV-2 (CEMROD-2) producing cell lines. HIV infected cells were plated in 96 well plates (10⁴ cells/well in RPMI 1640 + 10% FCS) and incubated with or without dilution of compounds for 30 minutes at 37°C. Target cells are then added 5 x 10⁵/well and the number of syncytia are qualitatively determined after the incubation periods described in the text.
# In a series of additional experiments, analysis of HIV-1 induced syncytia was performed by coculturing H9 cells infected with the IIIb isolate with uninfected Supt-1 (a human CD4+ T cell line) cells as targets. […]
# [2] = tested on: HIV-1; test: Viral RNA analysis by dot blot; type: cell-based; conditions: target cells infected in the presence of compound, 1 mM, 72 hours post-infection
# Description: Virus particles were incubated with target cells in the presence or absence of […] of β-CD-14S. At 72 hours post infection, the cells were washed and dot blot assays were performed to determine the presence or absence of viral RNA production. In (A), target cells were infected in the presence of sulfated β-cyclodextrin (lane A), in the absence of cyclodextrins (lane B), or in the presence of unsubstituted β-cyclodextrin (lane C). 1/2 dilutions of cells are from left to right starting with 10⁶ cell/well utilized. In (B), virally infected cells (+) or uninfected cells (-) were assayed for their ability to produce viral RNA by dot blot analysis. CD = infected cells incubated with 1 mM of β-CD-14S. 1/2 dilutions of cells are from top to bottom starting with 10⁶ cell/well.
# Virus treated cells were grown in tissue culture and harvested for assay at 72 hrs. post-infection. The cell concentrations were then adjusted to 1 x 10⁶ cells/m1 with phosphate buffered saline and spotted directly onto prewetted gene screen utilizing a dot blot apparatus. The filter was then fixed in 3% NaC1, 10 mM NaH₂PO₄, (pH 7.2) containing 1% gluteraldehyde at 4°C for 1 hr. The fixed blot was then rinsed three times with proteolytic buffer (50mM EDTA, 0.1 M Tris-HC1 (pH 8.0), 20 µg/ml proteinase K) for 30 minutes at 37°C. The filter was air dried until being probed. A Sall-Xho1 probe derived from the pIIIenv1 plasmid (a generous gift of Dr. J. Sodrofsky) and encoding the envelope region of the HXB2, HIV-1 virus was labeled by the random primer method using standard technology and hybridized to the filter as previously described (Weiner et al., 1986, Cell Immunol. 100:197).
# To determine if the cyclodextrins were interfering with steps relevant to viral replication, the ability of these compounds to inhibit viral nucleic acid synthesis was determined. Virus particles were incubated with target cells in the presence or absence of 1 mM of β-CD-14S. At 72 hours post-infection, the cells were washed and dot blot assays were performed to determine the presence or absence of viral RNA production. […]
# [3] = tested on: HTLV-IIIb cell free virus; test: Reverse transcriptase assay of HIV infectivity, cell free virus on target cells, 10 day incubation; type: cell-based, HIV-1; conditions: 1/2 dilutions from 2.5 mM, result in words
# Description: Figure 2 illustrates the effects of cyclodextrin and cyclodextrin derivatives on HIV infectivity as determined by reverse transcriptase activity. Samples assayed are (A) untreated control cells, (B) β-cyclodextrin unsubstituted ring, (C) partially sulfated β-cyclodextrin ring, (D) propylated β-cyclodextrin ring, (E) sulfated β-cyclodextrin ring, and (F) methylated β-cyclodextrin ring. Numbers indicate 1/2 dilutions of test compounds with 1 = 2.5 mM concentration of compound.
# Virus infected cells were pelleted by centrifugation and 50 µl of culture suprenatant was collected from each well for assay. Culture supernatant (25 µl) was plated in 96 well round bottomed plates and 50 µl of transcriptase cocktail was added to each well. Cocktail is 50 mM Tris-HC1, pH 8.0, 20 mM DTT, 0.6 mM MnC1₂, 60 mM NaC1, 0.05% NP-40, 5 µg/ml dt (oligodeoxythymidilic acid), 10 µg/ml poly A (polyriboadenylic acid), 10 µM dTTP, 1 Ci/mm ³²P dTTP. Plates were then incubated for 60 minutes at 37°C. After incubation samples were spotted onto Whatman DEAE-81 paper, washed and analyzed by counting or direct autoradiography.
# The ability of cyclodextrins to inhibit HIV infection was assessed in vitro utilizing reverse transcriptase assays as described Section 6.1.2, supra. HTLV-IIIb cell free virus stocks were inoculated onto target cells in the presence or absence of the synthetic compounds.
# [4] = tested on: HIV-2; test: HIV-2 induced syncytia assay, ROD-2 infected cells cocultured with H9 target cells; type: cell-based; conditions: HIV-2, number and size of syncytia
# Description: as §1, with “text. […]” for “text.”
# [5] = Water solubility at 0°C; type: physicochemical; conditions: 0°C, H₂O
# Description: The cyclic oligosaccharide derivatives useful in the present invention are highly hydrophilic and therefore very water soluble. A highly hydrophilic character probably is important to allow interaction with cellular surfaces. The hydrophilic activity is likely roughly indicated by the affinity to water, as measured by water solubility. It is important to measure the same at 0°C since at higher temperatures the most suitable derivative have solubilities so high that meaningful measurements are difficult.
structure (smiles),measurement,setting,value
"OC[C@H]1O[C@@H]2O[C@H]3[C@H](O)[C@@H](O)[C@@H](O[C@H]4[C@H](O)[C@@H](O)[C@@H](O[C@H]5[C@H](O)[C@@H](O)[C@@H](O[C@H]6[C@H](O)[C@@H](O)[C@@H](O[C@H]7[C@H](O)[C@@H](O)[C@@H](O[C@H]8[C@H](O)[C@@H](O)[C@@H](O[C@H]1[C@H](O)[C@H]2O)O[C@@H]8CO)O[C@@H]7CO)O[C@@H]6CO)O[C@@H]5CO)O[C@@H]4CO)O[C@@H]3CO [Beta-CD, β-cyclodextrin, reference compound]",number of syncytia formed,[1]; 1.3 mM,4 L
same,number of syncytia formed,[1]; 2.5 mM,4 L
same,number of syncytia formed,[1]; .01 mM,4 L
same,number of syncytia formed,[1]; .02 mM,4 L
same,number of syncytia formed,[1]; .04 mM,4 L
same,number of syncytia formed,[1]; .08 mM,4 L
same,number of syncytia formed,[1]; .16 mM,4 L
same,number of syncytia formed,[1]; .32 mM,4 L
same,number of syncytia formed,[1]; .63 mM,4 L
same,inhibiting syncytia formation of HIV-1,[1]; result in words,as ineffective as media alone
same,HIV-1 specific RNA,[2],substantial viral RNA was detected
same,inhibition of viral infectivity (reverse transcriptase activity),[3],no inhibition of viral infectivity
same,number of syncytia formed,[4]; 1.3 mM,4 L
same,number of syncytia formed,[4]; 2.5 mM,4 L
same,number of syncytia formed,[4]; .01 mM,4 L
same,number of syncytia formed,[4]; .02 mM,4 L
same,number of syncytia formed,[4]; .04 mM,4 L
same,number of syncytia formed,[4]; .08 mM,4 L
same,number of syncytia formed,[4]; .16 mM,4 L
same,number of syncytia formed,[4]; .32 mM,4 L
same,number of syncytia formed,[4]; .63 mM,4 L
same,solubility,[5],7000 µg/mL
